#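 Results reflect a 48-hour exposure of cells in 96-well plates to compound at five concentrations. GI50 marks 50% less growth.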 Active and inactive are the calls of the source. Cut-off read from the data, not from the text of the source: active = GI50 up to about 1.1 µM and inactive = higher.
# Columns and labels:
# Test in all cases: DTP human tumour cell line panel, 48 h
# [1] = system: 786-0
# [2] = system: A498
# [3] = system: A549
# [4] = system: ACHN
# [5] = system: CAKI-1
# [6] = system: CCRF-CEM
# [7] = system: COLO 205
# [8] = system: DU-145
# [9] = system: EKVX
# [10] = system: HCC 2998
# [11] = system: HCT-116
# [12] = system: HCT-15
# [13] = system: HL-60
# [14] = system: HOP-62
# [15] = system: HOP-92
# [16] = system: HT-29
# [17] = system: Hs-578T
# [18] = system: IGROV-1
# [19] = system: K562
# [20] = system: KM12
# [21] = system: LOX IMVI
# [22] = system: M14
# [23] = system: MCF7
# [24] = system: MDA-MB-231
# [25] = system: MDA-MB-435
# [26] = system: MDA-N
# [27] = system: MOLT-4
# [28] = system: NCI-H226
# [29] = system: NCI-H23
# [30] = system: NCI-H460
# [31] = system: NCI-H522
# [32] = system: NCI/ADR-RES
# [33] = system: OVCAR-3
# [34] = system: OVCAR-4
# [35] = system: OVCAR-5
# [36] = system: OVCAR-8
# [37] = system: PC-3
# [38] = system: RPMI-8226
# [39] = system: RXF 393
# [40] = system: SF-268
# [41] = system: SF-295
# [42] = system: SF-539
# [43] = system: SK-MEL-28
# [44] = system: SK-MEL-2
# [45] = system: SK-MEL-5
# [46] = system: SK-OV-3
# [47] = system: SN12C
# [48] = system: SNB-19
# [49] = system: SNB-75
# [50] = system: SR
# [51] = system: SW-620
# [52] = system: T47D
# [53] = system: TK-10
# [54] = system: U-251
# [55] = system: UACC-257
# [56] = system: UACC-62
# [57] = system: BT-549
# [58] = system: Malme-3M
# [59] = system: UO-31
smiles,measurement,setting,value
O=C(CSc1nc2ccc(I)cc2c(=O)n1Cc1ccccc1)N/N=C/c1ccccc1,GI50,[1],11.8 µM (inactive)
same,GI50,[2],15.2 µM (inactive)
same,GI50,[3],25.2 µM (inactive)
same,GI50,[4],21.7 µM (inactive)
same,GI50,[5],4.01 µM (inactive)
same,GI50,[6],40.9 µM (inactive)
same,GI50,[7],> 100 µM (inactive)
same,GI50,[8],39.3 µM (inactive)
same,GI50,[9],26.6 µM (inactive)
same,GI50,[10],67.1 µM (inactive)
same,GI50,[11],33.9 µM (inactive)
same,GI50,[12],22.1 µM
same,GI50,[13],> 100 µM (inactive)
same,GI50,[14],6.82 µM (inactive)
same,GI50,[15],11.5 µM (inactive)
same,GI50,[16],47.6 µM (inactive)
same,GI50,[17],1.01 µM (active)
same,GI50,[18],14.8 µM (inactive)
same,GI50,[19],29.6 µM (inactive)
same,GI50,[20],48.8 µM (inactive)
same,GI50,[21],41.7 µM (inactive)
same,GI50,[22],43.3 µM (inactive)
same,GI50,[23],25.2 µM (inactive)
same,GI50,[24],8.2 µM (inactive)
same,GI50,[25],> 100 µM (inactive)
same,GI50,[26],> 100 µM (inactive)
same,GI50,[27],58.1 µM (inactive)
same,GI50,[28],29.9 µM (inactive)
same,GI50,[29],17.5 µM (inactive)
same,GI50,[30],27 µM (inactive)
same,GI50,[31],18.1 µM (inactive)
same,GI50,[32],23.8 µM (inactive)
same,GI50,[33],11.6 µM (inactive)
same,GI50,[34],34.2 µM (inactive)
same,GI50,[35],57 µM (inactive)
same,GI50,[36],17.9 µM (inactive)
same,GI50,[37],10.3 µM (inactive)
same,GI50,[38],82.4 µM (inactive)
same,GI50,[39],8.13 µM (inactive)
same,GI50,[40],10.6 µM (inactive)
same,GI50,[41],11.4 µM (inactive)
same,GI50,[42],26.9 µM (inactive)
same,GI50,[43],> 100 µM (inactive)
same,GI50,[44],12 µM (inactive)
same,GI50,[45],42.4 µM (inactive)
same,GI50,[46],10.4 µM (inactive)
same,GI50,[47],66.1 µM (inactive)
same,GI50,[48],17.5 µM (inactive)
same,GI50,[49],11.1 µM (inactive)
same,GI50,[50],13.5 µM (inactive)
same,GI50,[51],> 100 µM (inactive)
same,GI50,[52],23.1 µM (inactive)
same,GI50,[53],15.2 µM (inactive)
same,GI50,[54],11.4 µM (inactive)
same,GI50,[55],26.3 µM (inactive)
same,GI50,[56],39.2 µM (inactive)
COC12C=CC(CC1)C1C(=O)c3c(C)c(C)n(C)c3C(=O)C12 (centres undefined),GI50,[1],> 100 µM (inactive)
same,GI50,[2],> 100 µM (inactive)
same,GI50,[4],90.6 µM (inactive)
same,GI50,[57],> 100 µM (inactive)
same,GI50,[6],> 100 µM (inactive)
same,GI50,[7],> 100 µM (inactive)
same,GI50,[8],> 100 µM (inactive)
same,GI50,[9],> 100 µM (inactive)
same,GI50,[11],89.5 µM (inactive)
same,GI50,[12],15.4 µM
same,GI50,[14],> 100 µM (inactive)
same,GI50,[16],> 100 µM (inactive)
same,GI50,[17],70.3 µM (inactive)
same,GI50,[18],73.5 µM (inactive)
same,GI50,[19],> 100 µM (inactive)
same,GI50,[20],91.4 µM (inactive)
same,GI50,[21],> 100 µM (inactive)
same,GI50,[22],> 100 µM (inactive)
same,GI50,[23],> 100 µM (inactive)
same,GI50,[25],83.2 µM (inactive)
same,GI50,[27],> 100 µM (inactive)
same,GI50,[58],> 100 µM (inactive)
same,GI50,[28],25.9 µM (inactive)
same,GI50,[29],99.5 µM (inactive)
same,GI50,[30],> 100 µM (inactive)
same,GI50,[32],> 100 µM (inactive)
same,GI50,[33],> 100 µM (inactive)
same,GI50,[35],> 100 µM (inactive)
same,GI50,[36],> 100 µM (inactive)
same,GI50,[37],> 100 µM (inactive)
same,GI50,[38],85.1 µM (inactive)
same,GI50,[39],> 100 µM (inactive)
same,GI50,[40],> 100 µM (inactive)
same,GI50,[41],> 100 µM (inactive)
same,GI50,[42],> 100 µM (inactive)
same,GI50,[44],> 100 µM (inactive)
same,GI50,[45],19.6 µM (inactive)
same,GI50,[46],> 100 µM (inactive)
same,GI50,[48],> 100 µM (inactive)
same,GI50,[49],67.6 µM (inactive)
same,GI50,[50],27 µM (inactive)
same,GI50,[51],> 100 µM (inactive)
same,GI50,[52],> 100 µM (inactive)
same,GI50,[53],> 100 µM (inactive)
same,GI50,[54],> 100 µM (inactive)
same,GI50,[55],35.6 µM (inactive)
same,GI50,[56],40.9 µM (inactive)
same,GI50,[59],36.1 µM (inactive)
COC(=O)c1cc2c(c(C(=O)OC)c1)CCC2,GI50,[1],> 100 µM (inactive)
same,GI50,[2],63.7 µM (inactive)
same,GI50,[3],> 100 µM (inactive)
same,GI50,[4],> 100 µM (inactive)
same,GI50,[5],20.7 µM (inactive)
same,GI50,[6],50.8 µM (inactive)
same,GI50,[8],> 100 µM (inactive)
same,GI50,[9],> 100 µM (inactive)
same,GI50,[10],> 100 µM (inactive)
same,GI50,[11],76.6 µM (inactive)
same,GI50,[12],63.1 µM
same,GI50,[13],70.6 µM (inactive)
same,GI50,[14],> 100 µM (inactive)
same,GI50,[15],49.9 µM (inactive)
same,GI50,[16],40.6 µM (inactive)
same,GI50,[17],> 100 µM (inactive)
same,GI50,[18],> 100 µM (inactive)
same,GI50,[19],59 µM (inactive)
same,GI50,[21],82.4 µM (inactive)
same,GI50,[22],> 100 µM (inactive)
same,GI50,[23],> 100 µM (inactive)
same,GI50,[24],82.8 µM (inactive)
same,GI50,[25],> 100 µM (inactive)
same,GI50,[26],> 100 µM (inactive)
same,GI50,[27],37.2 µM (inactive)
same,GI50,[58],> 100 µM (inactive)
same,GI50,[29],> 100 µM (inactive)
same,GI50,[30],> 100 µM (inactive)
same,GI50,[31],58.2 µM (inactive)
same,GI50,[32],59.8 µM (inactive)
same,GI50,[33],49.4 µM (inactive)
same,GI50,[34],> 100 µM (inactive)
same,GI50,[35],> 100 µM (inactive)
same,GI50,[36],> 100 µM (inactive)
same,GI50,[37],68.5 µM (inactive)
same,GI50,[38],> 100 µM (inactive)
same,GI50,[39],82.6 µM (inactive)
same,GI50,[40],> 100 µM (inactive)
same,GI50,[41],> 100 µM (inactive)
same,GI50,[42],> 100 µM (inactive)
same,GI50,[43],> 100 µM (inactive)
same,GI50,[44],> 100 µM (inactive)
same,GI50,[45],56.1 µM (inactive)
same,GI50,[46],> 100 µM (inactive)
same,GI50,[48],> 100 µM (inactive)
same,GI50,[49],34.8 µM (inactive)
same,GI50,[50],30.3 µM (inactive)
same,GI50,[51],> 100 µM (inactive)
same,GI50,[52],63.5 µM (inactive)
same,GI50,[53],> 100 µM (inactive)
same,GI50,[54],> 100 µM (inactive)
same,GI50,[55],> 100 µM (inactive)
same,GI50,[59],85.7 µM (inactive)
COc1cc(/C=C2\Sc3scc(-c4cccc([N+](=O)[O-])c4)[n+]3C2=O)cc(OC)c1OC,GI50,[1],10.4 µM (inactive)
same,GI50,[2],47 µM (inactive)
same,GI50,[3],19.2 µM (inactive)
same,GI50,[4],14.9 µM (inactive)
same,GI50,[5],5.98 µM (inactive)
same,GI50,[6],44.9 µM (inactive)
same,GI50,[7],3.87 µM (inactive)
same,GI50,[8],15.2 µM (inactive)
same,GI50,[9],12.4 µM (inactive)
same,GI50,[10],14.5 µM (inactive)
same,GI50,[11],11.1 µM (inactive)
same,GI50,[13],36.7 µM (inactive)
same,GI50,[14],16.6 µM (inactive)
same,GI50,[15],11.3 µM (inactive)
same,GI50,[16],13.1 µM (inactive)
same,GI50,[17],10.8 µM (inactive)
same,GI50,[18],14 µM (inactive)
same,GI50,[19],4.54 µM (inactive)
same,GI50,[20],17.8 µM (inactive)
same,GI50,[21],10.7 µM (inactive)
same,GI50,[22],11.7 µM (inactive)
same,GI50,[23],4.15 µM (inactive)
same,GI50,[24],7.29 µM (inactive)
same,GI50,[25],12.6 µM (inactive)
same,GI50,[26],11.9 µM (inactive)
same,GI50,[27],3.21 µM (inactive)
same,GI50,[58],13.8 µM (inactive)
same,GI50,[28],5.2 µM (inactive)
same,GI50,[29],15.1 µM (inactive)
same,GI50,[30],11 µM (inactive)
same,GI50,[31],4.67 µM (inactive)
same,GI50,[32],17.4 µM (inactive)
same,GI50,[33],15.8 µM (inactive)
same,GI50,[34],15.3 µM (inactive)
same,GI50,[35],20.8 µM (inactive)
same,GI50,[36],15.5 µM (inactive)
same,GI50,[37],21.4 µM (inactive)
same,GI50,[38],4.06 µM (inactive)
same,GI50,[39],12.5 µM (inactive)
same,GI50,[40],11.8 µM (inactive)
same,GI50,[41],16.3 µM (inactive)
same,GI50,[42],8.89 µM (inactive)
same,GI50,[43],16.1 µM (inactive)
same,GI50,[44],17 µM (inactive)
same,GI50,[45],6.1 µM (inactive)
same,GI50,[46],23.6 µM (inactive)
same,GI50,[47],18.1 µM (inactive)
same,GI50,[48],16.7 µM (inactive)
same,GI50,[49],1.47 µM (inactive)
same,GI50,[50],2.05 µM (inactive)
same,GI50,[51],9.1 µM (inactive)
same,GI50,[52],5.56 µM (inactive)
same,GI50,[53],10.7 µM (inactive)
same,GI50,[54],11.6 µM (inactive)
same,GI50,[55],12.5 µM (inactive)
same,GI50,[56],11.3 µM (inactive)
same,GI50,[59],6.37 µM (inactive)

# — ChEMBL document CHEMBL1201862, “PubChem BioAssay data set” (2004)
